Source: US20230103675A1, “ALLERGEN PROTECTION FOR THE SKIN” (BEIERSDORF AG, priority 2020, published 2023)
Where no end group is shown, it is not given here.

Key:
[1] = tested on: Phenion FTS full skin models; assay: Cytokine release (IL8, IL6) in supernatants of Phenion FTS full skin models, Bio-Plex multiplex immunoassay; type: cell-based, human; details: FIGS. 2 to 4 left bar; 0.5 mM peptide without allergen
Method: (§1) The investigations were carried out using Phenion FTS full skin models (Phenion, Henkel). These were maintained for 3 days at 37° C. and 7% CO2 in deep-well plates having a […] pore size in the cell culture inserts. The skin models were maintained in 1.5 ml of air-liquid interface medium without phenol red. The medium was changed daily. The test substances were dissolved in ethanol and incubated at room temperature for 24 h. After culturing for 24 h, 25 μl of the substance solution was dripped onto a sterile filter paper that had previously been laid on the skin model. The barrier peptide (0.5 mM AcRFAACAA) had previously been applied to the model as a solution in 100 mM phosphate buffer (pH 7.5). Alternatively, the barrier peptide was applied in a formulation having a content of 0.25% by weight.
(§2) After culturing for a further 24 h, the models were harvested and one half embedded in OCT mounting medium (VWR Q-Path Chemicals), the other half snap-frozen in liquid nitrogen. The supernatant of each model was collected and stored at −20° C.
The supernatants were then analyzed (FIGS. 2, 3 and 4).
The supernatants of the Phenion FTS models were analyzed using the Bio-Plex Pro Human Cytokine Screening Panel (Bio-Rad) according to the manufacturer's protocol. […] The cytokine concentrations are calculated on the basis of the standard curves from the Bioplex system. […]

Phenion skin models = assay: H&E staining of cryosections of Phenion skin models; type: cell-based; details: FIG. 5 B; 0.5 mM peptide, no allergen
Method: as §1, §2
In further investigations, frozen sections were thawed and incubated for 10 min in 3.7% paraformaldehyde at RT. After three PBS wash steps and one minute in distilled water, they are stained for 3 min in hematoxylin solution. […]

[2] = Barrier effect against metals
[3] = Direct peptide reaction assay (DPRA) with urushiols, Ellman's reagent, 24 h; details: FIG. 9; urushiol structures I-V, 24 h reaction, n=3
Method: The reaction courses shown in FIGS. 8 and 9 were determined colorimetrically through the reaction of the peptide with Ellmann's reagent in a photometer. In this reaction, DTNB ((5,5′-dithiobis-2-nitrobenzoic acid, Ellmann's reagent) is cleaved and attached to the SH residue of the amino acid cysteine of the peptides of the invention (Ac-RFAACAA, RFAACAA).
The SH radical is at the same time the reactive binding site of the peptide with the allergens. The color reaction with DTNB (color change from colorless to yellow) competes with the allergen reaction. This means that the better the allergen reacts with the peptide, the less peptide remains available for the reaction with the detection reagent, i.e. the less the resulting yellow coloration.
The control is the peptide in the buffer system without allergen, i.e. instead of allergen only its solvent (ethanol) is added.
Urushiols of the structure below were used.
The investigated urushiols differ in the saturation in the side chain R.
Urushiols where R═C15 singly (C15:1), doubly (C15:2) or triply (C15:3) unsaturated were investigated.

## Ac-RFAACAA [Ac-RFAACAA, acetylarginine-phenylalanine-alanine-alanine-cysteine-alanine-alanine]
[1]
  skin model IL8/IL6 release with peptide on its own: unchanged
Phenion skin models
  skin model morphology (H&E) with peptide on its own: unchanged

## His His His His His His (HHHHHH; printed: His His His His His His)
[2]
  barrier effect against metals and nickel in particular: achieved a barrier effect

## RFAACAA [Arg Phe Ala Ala Cys Ala Ala]
[3]
  reactivity and thus protective activity against urushiols: very high reactivity
